In publication PMC10515640, “Structure-Based Optimization of Covalent, Small-Molecule Stabilizers of the 14-3-3σ/ERα Protein–Protein Interaction from Nonselective Fragments” (Journal of the American Chemical Society, 2023):

Legend:
14-3-3σ/C-RAF [1] = molecular target: T1, 14-3-3σ/C-RAF (Homo sapiens, UniProt P31947); assay: Mass spectrometry dose response, compound binding to 14-3-3σ in the presence of C-RAF phosphopeptide; details: 100 nM compound, 100 nM 14-3-3σ, C-RAF peptide 18 µM
T1 construct: The 14-3-3 σ isoform (full-length for mass spectrometry and fluorescence anisotropy assays, ΔC for crystallography); made in house; host or cells: E. coli Rosetta 2(DE3)pLysS, pPROEX HTb vector
T1 sequence (P31947 1-248): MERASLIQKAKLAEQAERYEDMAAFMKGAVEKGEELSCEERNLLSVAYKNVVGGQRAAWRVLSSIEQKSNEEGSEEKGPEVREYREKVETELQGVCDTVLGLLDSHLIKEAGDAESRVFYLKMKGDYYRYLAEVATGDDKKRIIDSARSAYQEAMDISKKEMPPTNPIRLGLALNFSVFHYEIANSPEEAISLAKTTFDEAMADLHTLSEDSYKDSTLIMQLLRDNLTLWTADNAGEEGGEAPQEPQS
Text: (§1) Two orthogonal assays were developed for screening. For the primary assay, mass spectrometry (MS) was used to monitor the formation of the covalent bond between the compound and the native cysteine (Cys38 on 14-3-3σ) (Figure 1D). The assay was first performed in the absence of peptide to determine binding to 14-3-3σ only (apo screening, D1) and then in the presence of both 14-3-3σ and the peptide as an indication of how much the peptide stabilized compound binding (D2). […] As a secondary assay, fluorescence anisotropy (FA) was used. In this case, compounds were titrated to mixtures of 14-3-3σ and FAM-labeled peptides. […] Thus, the two assays are highly complementary; the MS assay reports on compound binding and the FA assay reports on peptide binding. […]
(§2) Mass spectrometry dose response assays were performed on a Waters Acquity UPLC/ Xevo G2-XS Q-Tof mass spectrometer. A Waters UPLC Protein BEH-C4 Column (300 Å, 1.7 μm, 2.1 mm x 50 mm) was used to desalt the samples prior to application on the mass spectrometer. For 19-point MS dose responses, 50 mM compound stocks in DMSO were serially diluted in 3-fold increment in a master plate, then 1000 nl of the compounds were transferred in the assay plates. Master mixes containing 100 nM full-length wild type 14-3-3σ in the absence or presence of […]
(§3) Assay buffer was TRIS (10 mM, pH 8.0) and final volume per well was 50 μl, with final top concentration of compounds dose response series at 1 mM. The reaction mixtures were incubated for 1h at rt before subjected to MS. Four measurements (1h, 8h, 16h, 24h) were performed for time-course experiments. The injection volume for each sample was 6 μl. 24 μl of sample were needed for the time-course experiments, so the total volume in the assay plate was adjusted to 50 μl, to account for the dead volume in the injections. Data collection and automated processing followed a custom workflow, as previously described.1 z Plots were created using GraphPad Prism with the log(agonist) vs. response (variable slope, four parameters) fitting model. […]

14-3-3σ/C-RAF [2] = molecular target: T1, 14-3-3σ/C-RAF; assay: Fluorescence anisotropy compound titration, FAM-labeled C-RAF peptide; type: binding; details: 10 nM C-RAF-FAM labeled peptide, 5 µM 14-3-3σ, overnight incubation; read-out: EC50 value C-RAF (FA compound titration)
Text: as §1
(§4) diluted in buffer (10 mM HEPES, pH 7.5, 150 mM NaCl, 0.1% Tween20, 1 mg/mL Bovine Serum Albumin (BSA; Sigma-Aldrich). Final DMSO in the assay was always 1%. Dilution series of 14-3-3 proteins or compounds were made in […]
(§5) Compound titrations were made by titrating the compound in a 2-fold dilution series (starting at 500 or 1000 µM) to a mix of fluorescein-labeled peptide (10 nM) and 14-3-3σ (concentration at approximately the EC20 to EC30 value of the protein-peptide complex; 1 µM for ERα and 5 µM for C-RAF). Using the ~EC25 value makes the assay sensitive for measuring an increase in PPI formation. Fluorescence anisotropy measurements were performed directly and after overnight incubation at room temperature. […]
(§6) Wells containing only FAM-peptide were used to set as G-factor at 35 mP. Data reported are at endpoint. EC50 and apparent Kd values were obtained from fitting the data with a four-parameter logistic model (4PL) in GraphPad Prism 7 for Windows. Data was obtained and averaged based on either three (compound titrations) or two (protein titrations) independent experiments.

14-3-3σ = molecular target: T2, 14-3-3σ (Homo sapiens, UniProt P31947); assay: Mass spectrometry dose response, compound binding to 14-3-3σ in the absence of peptide (apo); details: 100 nM compound, 100 nM 14-3-3σ
T2 construct: The 14-3-3 σ isoform (full-length for mass spectrometry and fluorescence anisotropy assays, ΔC for crystallography); made in house; host or cells: E. coli Rosetta 2(DE3)pLysS, pPROEX HTb vector
T2 sequence (P31947 1-248): T1 sequence (P31947 1-248)
Text: as §1, §2, §3

14-3-3σ/ERα [3] = molecular target: T3, 14-3-3σ/ERα (Homo sapiens, UniProt P03372+P31947); assay: Mass spectrometry dose response, compound binding to 14-3-3σ in the presence of ERα phosphopeptide; details: 100 nM compound, 100 nM 14-3-3σ, ERα-peptide 2 µM
T3 construct: The 14-3-3 σ isoform (full-length for mass spectrometry and fluorescence anisotropy assays, ΔC for crystallography); made in house; host or cells: E. coli Rosetta 2(DE3)pLysS, pPROEX HTb vector
Text: as §1, §2, §3

14-3-3σ/ERα [4] = molecular target: T3, 14-3-3σ/ERα; assay: Fluorescence anisotropy compound titration, FAM-labeled ERα peptide; type: binding; details: 10 nM ERα-FAM labeled peptide, 1 µM 14-3-3σ, overnight incubation (24 h); read-out: EC50 value ERα (FA compound titration)
Text: as §1, §4, §5, §6

Row | SMILES | Percentage (%) bound of compound to 14-3-3σ, CRAF 1h (14-3-3σ/C-RAF [1]) [%] | Percentage (%) bound of compound to 14-3-3σ, CRAF 8h (14-3-3σ/C-RAF [1]) [%] | Percentage (%) bound of compound to 14-3-3σ, CRAF 24h (14-3-3σ/C-RAF [1]; 24h) [%] | Percentage (%) bound of compound to 14-3-3σ, CRAF 24h (14-3-3σ/C-RAF [1]; head prints 24h) [%] | EC50 (14-3-3σ/C-RAF [2]) [µM] | Percentage (%) bound of compound to 14-3-3σ, APO 1h (14-3-3σ) [%] | Percentage (%) bound of compound to 14-3-3σ, APO 8h (14-3-3σ) [%] | Percentage (%) bound of compound to 14-3-3σ, APO 16h (14-3-3σ) [%] | Percentage (%) bound of compound to 14-3-3σ, APO 24h (14-3-3σ) [%] | Percentage (%) bound of compound to 14-3-3σ, ERα 1h (14-3-3σ/ERα [3]) [%] | Percentage (%) bound of compound to 14-3-3σ, ERα 8h (14-3-3σ/ERα [3]) [%] | Percentage (%) bound of compound to 14-3-3σ, ERα 16h (14-3-3σ/ERα [3]) [%] | Percentage (%) bound of compound to 14-3-3σ, ERα 24h (14-3-3σ/ERα [3]) [%] | EC50 (14-3-3σ/ERα [4]) [µM]
1 | O=C(CCl)NCC1CCN(C(=O)C2(Nc3ccc(Cl)cc3)CCC(F)(F)CC2)CC1 [compound 125] | 4.9 | 7.6 | 23.2 | 12.4 | > 150 | 0.4 | 1.1 | 2.1 | 6.2 | 13.8 | 30.0 | 64.6 | 87.5 | 12 ± 2
2 | O=C(CCl)N1CC2(CCN(C(=O)C3(Nc4ccc(Cl)cc4)CCOCC3)CC2)C1 [compound 160] | 0.4 | 1.9 | 8.4 | 3.8 | > 150 | 0 | 0 | 1.0 | 5.8 | 6.9 | 8.6 | 48.4 | 76.6 | 16 ± 1
3 | O=C(CCl)N1CCC2(CC1)CC(CNC(=O)C1(Nc3ccc(Cl)cc3)CCOCC1)C2 [compound 175] | 2.4 | 6.0 | 17.4 | 9.6 | > 150 | 1.9 | 5.4 | 10.6 | 16.7 | 21.7 | 39.4 | 64.1 | 87.3 | 15 ± 2
4 | NC1CCC(Oc2ccc(Cl)cc2)(C(=O)N2CCC(CNC(=O)CCl)CC2)CC1 (stereo not shown) [compound 135] | 0.5 | 1.8 | 3.4 | 2.6 | > 150 | 0.8 | 0.9 | 1.8 | 2.4 | 11.3 | 22.2 | 42.2 | 64.2 | 37 ± 5
5 | Cl.O=C(CCl)NCC1CCN(C(=O)C2(Oc3ccc(Cl)cc3)CCNCC2)CC1 [compound 129] | 0.4 | 0.6 | 2.6 | 1.9 | > 150 | 0.9 | 2.0 | 2.4 | 4.8 | 16.5 | 31.4 | 58.4 | 82.6 | 30 ± 1

Continued, values first:

Row | Percentage (%) bound of compound to 14-3-3σ, CRAF 1h (14-3-3σ/C-RAF [1]) [%] | Percentage (%) bound of compound to 14-3-3σ, CRAF 8h (14-3-3σ/C-RAF [1]) [%] | Percentage (%) bound of compound to 14-3-3σ, CRAF 24h (14-3-3σ/C-RAF [1]; 24h) [%] | Percentage (%) bound of compound to 14-3-3σ, CRAF 24h (14-3-3σ/C-RAF [1]; head prints 24h) [%] | EC50 (14-3-3σ/C-RAF [2]) [µM] | Percentage (%) bound of compound to 14-3-3σ, APO 1h (14-3-3σ) [%] | Percentage (%) bound of compound to 14-3-3σ, APO 8h (14-3-3σ) [%] | Percentage (%) bound of compound to 14-3-3σ, APO 16h (14-3-3σ) [%] | Percentage (%) bound of compound to 14-3-3σ, APO 24h (14-3-3σ) [%] | Percentage (%) bound of compound to 14-3-3σ, ERα 1h (14-3-3σ/ERα [3]) [%] | Percentage (%) bound of compound to 14-3-3σ, ERα 8h (14-3-3σ/ERα [3]) [%] | Percentage (%) bound of compound to 14-3-3σ, ERα 16h (14-3-3σ/ERα [3]) [%] | Percentage (%) bound of compound to 14-3-3σ, ERα 24h (14-3-3σ/ERα [3]) [%] | EC50 (14-3-3σ/ERα [4]) [µM] | SMILES
6 | 0.0 | 1.0 | 4.3 | 2.6 | > 150 | 0 | 0 | 0 | 0 | 0 | 0 | 0 | 1.8 | > 150 | CC(C)(Oc1ccc(Cl)cc1)C(=O)N1CCC(NC(=O)CCl)CC1 [compound 26]
7 | 1.0 | 1.0 | 18.9 | 7.1 | 142 ± 40 | 0 | 0 | 0 | 0 | 0.4 | 1.0 | 3.1 | 11.0 | 9 ± 0.4 | CC(C)(Oc1ccc(Cl)cc1)C(=O)N1CCC(CCCNC(=O)CCl)CC1 [compound 29]
8 | 0.8 | 1.0 | 3.3 | 2.9 | > 150 | 0 | 0 | 1.0 | 5.8 | 0.9 | 2.8 | 7.5 | 19.0 | 55 ± 2 | CC(C)(Nc1ccc(Cl)cc1)C(=O)N1CCC(CNC(=O)CCl)CC1 [compound 84]
